Several values for one entry are separate records, joined by “and”; a condition that tells them apart may be missing. Identical values can stand only once. Toxic doses and inconclusive results are not listed. Square brackets hold non-standard residues; d marks the D form. Peptide text beside a SMILES is read from it. * marks the point of attachment. Nle = CCCC[CH](N)C(=O)O; Cbz = O=C(OCc1ccccc1)*
System: BDF1 mice, B16 melanoma ip, median survival T/C
Experiment: NCI In Vivo Anticancer Drug Screen. Data for tumor model B16 Melanoma (intraperitoneal) in B6D2F1 (BDF1) mice
Details: endpoint: median survival time, higher = longer survival
In short: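 Antitumor activity is assessed in mice bearing a transplanted tumor, with survival or tumor size compared against vehicle-dosed controls and expressed as T/C.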

[1] = dose: 25.0 mg/kg/injection, schedule: Q01DX009 (ip), vehicle: saline with Tween-80
[2] = dose: 50.0 mg/kg/injection, schedule: Q01DX009 (ip), vehicle: saline with Tween-80
[3] = dose: 50.0 mg/kg/injection, schedule: Q01DX009 (ip), vehicle: Klucel (hydroxypropylcellulose) (HPC)
[4] = dose: 100.0 mg/kg/injection, schedule: Q01DX009 (ip), vehicle: Klucel (hydroxypropylcellulose) (HPC)
[5] = dose: 100.0 mg/kg/injection, schedule: Q04DX003 (ip), vehicle: Klucel (hydroxypropylcellulose) (HPC)
[6] = dose: 200.0 mg/kg/injection, schedule: Q04DX003 (ip), vehicle: Klucel (hydroxypropylcellulose) (HPC)
[7] = dose: 100.0 mg/kg/injection, schedule: Q01DX009 (ip), vehicle: saline with Tween-80
[8] = dose: 200.0 mg/kg/injection, schedule: Q01DX009 (ip), vehicle: saline with Tween-80
[9] = dose: 400.0 mg/kg/injection, schedule: Q01DX009 (ip), vehicle: saline with Tween-80
[10] = dose: 200.0 mg/kg/injection, schedule: Q01DX009 (ip), vehicle: Klucel (hydroxypropylcellulose) (HPC)
[11] = dose: 400.0 mg/kg/injection, schedule: Q01DX009 (ip), vehicle: Klucel (hydroxypropylcellulose) (HPC)
[12] = dose: 25.0 mg/kg/injection, schedule: Q01DX009 (ip), vehicle: saline
[13] = dose: 50.0 mg/kg/injection, schedule: Q01DX009 (ip), vehicle: saline
[14] = dose: 100.0 mg/kg/injection, schedule: Q01DX009 (ip), vehicle: saline
[15] = dose: 200.0 mg/kg/injection, schedule: Q01DX009 (ip), vehicle: saline
[16] = dose: 12.5 mg/kg/injection, schedule: Q01DX009 (ip), vehicle: saline
[17] = dose: 12.5 mg/kg/injection, schedule: Q01DX009 (ip), vehicle: Klucel (hydroxypropylcellulose) (HPC)
[18] = dose: 25.0 mg/kg/injection, schedule: Q01DX009 (ip), vehicle: Klucel (hydroxypropylcellulose) (HPC)
[19] = dose: 400.0 mg/kg/injection, schedule: Q01DX009 (ip), vehicle: saline
[20] = dose: 6.25 mg/kg/injection, schedule: Q01DX009 (ip), vehicle: saline

CCCCN(C)N=Nc1c(C(N)=O)n[nH]c1C
T/C (dose: 12.5 mg/kg/injection, schedule: Q01DX009 (ip), vehicle: saline with Tween-80): 110 % of control | T/C [1]: 105 % of control | T/C [2]: 122 % of control | T/C (dose: 50.0 mg/kg/injection, schedule: Q04DX003 (ip), vehicle: saline with Tween-80): 100 % of control | T/C (dose: 100.0 mg/kg/injection, schedule: Q04DX003 (ip), vehicle: saline with Tween-80): 105 % of control | T/C (dose: 200.0 mg/kg/injection, schedule: Q04DX003 (ip), vehicle: saline with Tween-80): 113 % of control

C=C1C(C)C2C(Cc3ccccc3)NC(=O)C23C(OC(C)=O)C=CC(C)(O)C(=O)C(C)C/C=C/C3C1O (configuration not stated)
T/C (dose: 0.63 mg/kg/injection, schedule: Q01DX009 (ip), vehicle: Klucel (hydroxypropylcellulose) (HPC)): 103 % of control | T/C (dose: 1.25 mg/kg/injection, schedule: Q01DX009 (ip), vehicle: Klucel (hydroxypropylcellulose) (HPC)): 94 % of control and 114 % of control | T/C (dose: 2.5 mg/kg/injection, schedule: Q01DX009 (ip), vehicle: Klucel (hydroxypropylcellulose) (HPC)): 100 % of control and 114 % of control | T/C (dose: 5.0 mg/kg/injection, schedule: Q01DX009 (ip), vehicle: Klucel (hydroxypropylcellulose) (HPC)): 108 % of control and 112 % of control

COc1cc(O)c2c(c1)C(=O)c1cc3c(c(O)c1C2=O)C(OC1OC(C)C(O)C(O)C1OC)C(OC)C(C)(O)C3=O (configuration not stated)
T/C [3]: 117 % of control | T/C [4]: 96 % of control

O=S(=O)(O)c1ccc(N=Nc2ccc(O)cc2)cc1
T/C (dose: 50.0 mg/kg/injection, schedule: Q04DX003 (ip), vehicle: Klucel (hydroxypropylcellulose) (HPC)): 105 % of control | T/C [5]: 97 % of control | T/C [6]: 91 % of control

O=C1CC2C=CCC12 (configuration not stated)
T/C [7]: 107 % of control | T/C [8]: 100 % of control | T/C [9]: 91 % of control

COC(=O)CNc1ccc(S(=O)(=O)c2ccc(N)cc2)cc1
T/C [4]: 103 % of control | T/C [10]: 106 % of control | T/C [11]: 120 % of control

CCCCC(NC(=O)C(Cc1ccccc1)NC(=O)OCc1ccccc1)C(=O)O (stereo not drawn) (Cbz-Phe-[Nle]-OH; configuration not given here)
T/C [2]: 92 % of control | T/C [7]: 100 % of control

CC1CCCC(C)N1C1=NCCO1 (configuration not stated)
T/C (dose: 5.0 mg/kg/injection, schedule: Q01DX009 (ip), vehicle: saline with Tween-80): 100 % of control | T/C (dose: 5.0 mg/kg/injection, schedule: Q04DX003 (ip), vehicle: saline with Tween-80): 100 % of control | T/C (dose: 10.0 mg/kg/injection, schedule: Q01DX009 (ip), vehicle: saline with Tween-80): 112 % of control | T/C (dose: 10.0 mg/kg/injection, schedule: Q04DX003 (ip), vehicle: saline with Tween-80): 97 % of control | T/C (dose: 20.0 mg/kg/injection, schedule: Q01DX009 (ip), vehicle: saline with Tween-80): 92 % of control | T/C (dose: 20.0 mg/kg/injection, schedule: Q04DX003 (ip), vehicle: saline with Tween-80): 100 % of control

CC[C@@]1(O)C(=O)OCc2c1cc1n(c2=O)Cc2cc3cc(O)ccc3nc2-1
T/C (dose: 0.2 mg/kg/injection, schedule: Q01DX009 (ip), vehicle: other): 157 % of control | T/C (dose: 0.39 mg/kg/injection, schedule: Q01DX009 (ip), vehicle: other): 151 % of control | T/C (dose: 0.79 mg/kg/injection, schedule: Q01DX009 (ip), vehicle: other): 179 % of control | T/C (dose: 1.57 mg/kg/injection, schedule: Q01DX009 (ip), vehicle: other): 184 % of control

CSCCC(N)C(=O)NC(CC(N)=O)C(=O)O (stereo not drawn) (H-Met-Asn-OH; configuration not given here)
T/C [12]: 103 % of control | T/C [13]: 108 % of control | T/C [14]: 96 % of control | T/C [15]: 89 % of control

COC(=O)C1CCC[N+](C)(C)C1 (configuration not stated)
T/C [16]: 100 % of control | T/C [12]: 100 % of control | T/C [13]: 91 % of control

CCC(c1ccc(OC(=O)Cc2ccc(N(CCCl)CCCl)cc2)cc1)C(CC)c1ccc(OC(=O)Cc2ccc(N(CCCl)CCCl)cc2)cc1 (configuration not stated)
T/C (dose: 6.25 mg/kg/injection, schedule: Q01DX009 (ip), vehicle: Klucel (hydroxypropylcellulose) (HPC)): 106 % of control | T/C [17]: 110 % of control | T/C [18]: 96 % of control | T/C [3]: 88 % of control | T/C (dose: 64.0 mg/kg/injection, schedule: Q02DX009 (ip), vehicle: saline with Tween-80): 95 % of control and 98 % of control | T/C (dose: 128.0 mg/kg/injection, schedule: Q02DX009 (ip), vehicle: saline with Tween-80): 91 % of control | T/C (dose: 256.0 mg/kg/injection, schedule: Q02DX009 (ip), vehicle: saline with Tween-80): 92 % of control

CCCCCCCCCCCCOCCOCCOCC(N)=O
T/C [14]: 112 % of control | T/C [15]: 109 % of control | T/C [19]: 90 % of control

O=C(NCCCN1CC1)C(=O)NCCCN1CC1
T/C (dose: 1.56 mg/kg/injection, schedule: Q01DX009 (ip), vehicle: saline): 165 % of control | T/C (dose: 3.13 mg/kg/injection, schedule: Q01DX009 (ip), vehicle: saline): 194 % of control | T/C [20]: 96 % of control

COc1cc(C=Nc2ccc(-c3nc(Cc4ccccc4)sc3C)cc2)ccc1N(CCCl)CCCl
T/C [17]: 175 % of control and 186 % of control | T/C [18]: 191 % of control

COc1ccccc1NC(=O)Oc1ccc(-c2ccccc2)cc1Br
T/C [4]: 100 % of control | T/C [5]: 100 % of control | T/C [10]: 96 % of control | T/C [6]: 90 % of control | T/C [11]: 96 % of control | T/C (dose: 400.0 mg/kg/injection, schedule: Q04DX003 (ip), vehicle: Klucel (hydroxypropylcellulose) (HPC)): 96 % of control

CN(C)CCCN1c2ccccc2S(=O)c2ccc(Cl)cc21 (configuration not stated)
T/C [16]: 97 % of control | T/C [12]: 100 % of control | T/C [13]: 108 % of control | T/C [14]: 94 % of control

COc1cc2c(cc1OC)/C(=N/N=C1\CCCc3cc(OC)c(OC)cc31)CCC2
T/C (dose: 1.56 mg/kg/injection, schedule: Q01DX009 (ip), vehicle: water): 104 % of control | T/C (dose: 3.13 mg/kg/injection, schedule: Q01DX009 (ip), vehicle: water): 100 % of control | T/C (dose: 6.25 mg/kg/injection, schedule: Q01DX009 (ip), vehicle: water): 100 % of control | T/C (dose: 12.5 mg/kg/injection, schedule: Q01DX009 (ip), vehicle: water): 95 % of control

Nc1nc2[nH]c(=O)cnc2c(=O)[nH]1
T/C [3]: 88 % of control | T/C [4]: 86 % of control | T/C [10]: 99 % of control

CC1(C)SC(C(NC(=O)Cc2ccccc2)C(=O)O)NC1C(=O)O (configuration not stated)
T/C [7]: 105 % of control | T/C [8]: 102 % of control

O=c1cc2oc3c(O)c(O)ccc3c3c4ccccc4c(=O)c(c1)c23
T/C [16]: 103 % of control | T/C [12]: 90 % of control

CC(C)CC(Br)C(=O)NC(CC(C)C)C(=O)O (configuration not stated)
T/C [1]: 95 % of control | T/C [2]: 100 % of control | T/C [7]: 95 % of control and 100 % of control | T/C [9]: 108 % of control

Cn1c(=O)c2[nH]c(Cc3ccsc3)nc2n(C)c1=O
T/C [17]: 104 % of control | T/C [18]: 107 % of control | T/C [3]: 96 % of control

CCCN(C)/N=N/c1[nH]ncc1C(N)=O
T/C (dose: 17.0 mg/kg/injection, schedule: Q01DX009 (ip), vehicle: saline with Tween-80): 114 % of control | T/C (dose: 37.0 mg/kg/injection, schedule: Q01DX009 (ip), vehicle: saline with Tween-80): 111 % of control | T/C [2]: 121 % of control

CCCCNC=O
T/C [14]: 102 % of control | T/C [15]: 102 % of control | T/C [19]: 116 % of control

CC(C)n1c(=S)[nH]c2ccccc2c1=O
T/C (dose: 16.5 mg/kg/injection, schedule: Q01DX009 (ip), vehicle: saline with Tween-80): 102 % of control | T/C [1]: 94 % of control | T/C (dose: 37.5 mg/kg/injection, schedule: Q01DX009 (ip), vehicle: saline with Tween-80): 100 % of control | T/C [4]: 95 % of control | T/C [7]: 87 % of control | T/C [14]: 117 % of control | T/C [10]: 90 % of control

CCCCCCCCCCCCO[P+](=O)OCCCCCCCCCCCC
T/C [14]: 88 % of control

O=C1NC2(CCCCC2)C(=O)N1CCN(CCCl)CCCl
T/C (dose: 0.75 mg/kg/injection, schedule: Q01DX009 (ip), vehicle: saline): 105 % of control and 107 % of control | T/C (dose: 0.78 mg/kg/injection, schedule: Q01DX009 (ip), vehicle: saline): 95 % of control and 109 % of control and 263 % of control | T/C (dose: 3.0 mg/kg/injection, schedule: Q01DX009 (ip), vehicle: saline): 107 % of control | T/C (dose: 6.0 mg/kg/injection, schedule: Q01DX009 (ip), vehicle: saline with Tween-80): 168 % of control and 191 % of control | T/C [20]: 152 % of control and 176 % of control

Reference: PubChem BioAssay AID192 (DTP/NCI, 2004)
